# Reference: the supplement of paper PMC11451515
# Experiments:
# Conditions in all cases: 48 h
# NOMO1 [1] = test: cell viability relative to DMSO control; higher = less cytotoxic
# Method in brief: (§1)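 Viability is a per-plate percentage relative to DMSO wells, with cell-free wells as background. CellTiter-Glo One luminescence was read after 48 h at 37°C on 1536-well plates (5 μl) of NOMO1 or SEM (500 cells/well) or P12-Ichikawa (1000 cells/well) leukemia cells. The cells had been adapted for at least four passages in each medium and pin-dosed with library compounds in DMSO from 47 μM to 0.79 nM in 11 threefold steps.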
# P12-Ichikawa [2] = test: as above
# Method in brief: as §1
# NOMO1 [3] = test: AUC of viability dose-response curve (% viability x log10 dose units); higher = less sensitive
# Method in brief: (§2)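 Seeding of medium-adapted leukemia cells was at 500 or 1000 cells/well in 1536-well plates, followed by 48 h at 37°C with library compounds in DMSO at 11 threefold doses from 47 μM to 0.79 nM. CellTiter-Glo One luminescence was normalised per plate to DMSO and cell-free wells and fitted as a four-parameter log-logistic function of log10 dose. Area under the curve was integrated by trapezoidal rule, with curves exceeding full viability scaled and curves failing quality control removed.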
# P12-Ichikawa [4] = test: as above
# Method in brief: as §2
# SEM cells [5] = test: as above
# Method in brief: as §2
# SEM cells [6] = test: cell viability relative to DMSO control; higher = less cytotoxic
# Method in brief: as §1
# [7] = RPMI 5 mM glucose + 10% FBS, 0.000781 µM
# [8] = RPMI 5 mM glucose + 10% FBS, 0.00234 µM
# [9] = RPMI 5 mM glucose + 10% FBS, 0.00702 µM
# [10] = RPMI 5 mM glucose + 10% FBS, 0.0211 µM
# [11] = RPMI 5 mM glucose + 10% FBS, 0.0632 µM
# [12] = RPMI 5 mM glucose + 10% FBS, 0.19 µM
# [13] = RPMI 5 mM glucose + 10% FBS, 0.569 µM
# [14] = RPMI 5 mM glucose + 10% FBS, 1.71 µM
# [15] = RPMI 5 mM glucose + 10% FBS, 5.12 µM
# [16] = RPMI 5 mM glucose + 10% FBS, 15.4 µM
# [17] = RPMI 5 mM glucose + 10% FBS, 46.1 µM
# [18] = HPLM + 10% dialyzed FBS, 0.000781 µM
# [19] = HPLM + 10% dialyzed FBS, 0.00234 µM
# [20] = HPLM + 10% dialyzed FBS, 0.00702 µM
# [21] = HPLM + 10% dialyzed FBS, 0.0211 µM
# [22] = HPLM + 10% dialyzed FBS, 0.0632 µM
# [23] = HPLM + 10% dialyzed FBS, 0.19 µM
# [24] = HPLM + 10% dialyzed FBS, 0.569 µM
# [25] = HPLM + 10% dialyzed FBS, 1.71 µM
# [26] = HPLM + 10% dialyzed FBS, 5.12 µM
# [27] = HPLM + 10% dialyzed FBS, 15.4 µM
# [28] = HPLM + 10% dialyzed FBS, 46.1 µM
# [29] = RPMI 5 mM glucose + 10% dialyzed FBS
# [30] = RPMI 5 mM glucose + 10% dialyzed FBS, 0.000781 µM
# [31] = RPMI 5 mM glucose + 10% dialyzed FBS, 0.00234 µM
# [32] = RPMI 5 mM glucose + 10% dialyzed FBS, 0.00702 µM
# [33] = RPMI 5 mM glucose + 10% dialyzed FBS, 0.0211 µM
# [34] = RPMI 5 mM glucose + 10% dialyzed FBS, 0.0632 µM
# [35] = RPMI 5 mM glucose + 10% dialyzed FBS, 0.19 µM
# [36] = RPMI 5 mM glucose + 10% dialyzed FBS, 0.569 µM
# [37] = RPMI 5 mM glucose + 10% dialyzed FBS, 1.71 µM
# [38] = RPMI 5 mM glucose + 10% dialyzed FBS, 5.12 µM
# [39] = RPMI 5 mM glucose + 10% dialyzed FBS, 15.4 µM
# [40] = RPMI 5 mM glucose + 10% dialyzed FBS, 46.1 µM
structure (smiles),measurement,setting,value
COc1cc(C)c(Sc2cnc(NC(=O)c3ccc(CNC(C)C(C)(C)C)cc3)s2)cc1C(=O)N1CCN(C(C)=O)CC1 (centres undefined),cell viability,NOMO1 [1]; [7],116%
same,cell viability,NOMO1 [1]; [8],131%
same,cell viability,NOMO1 [1]; [9],124%
same,cell viability,NOMO1 [1]; [10],128%
same,cell viability,NOMO1 [1]; [11],127%
same,cell viability,NOMO1 [1]; [12],124%
same,cell viability,NOMO1 [1]; [13],132%
same,cell viability,NOMO1 [1]; [14],115%
same,cell viability,NOMO1 [1]; [15],114%
same,cell viability,NOMO1 [1]; [16],115%
same,cell viability,NOMO1 [1]; [17],17%
same,cell viability,P12-Ichikawa [2]; [18],125%
same,cell viability,P12-Ichikawa [2]; [19],129%
same,cell viability,P12-Ichikawa [2]; [20],120%
same,cell viability,P12-Ichikawa [2]; [21],120%
same,cell viability,P12-Ichikawa [2]; [22],122%
same,cell viability,P12-Ichikawa [2]; [23],127%
same,cell viability,P12-Ichikawa [2]; [24],115%
same,cell viability,P12-Ichikawa [2]; [25],110%
same,cell viability,P12-Ichikawa [2]; [26],109%
same,cell viability,P12-Ichikawa [2]; [27],101%
same,cell viability,P12-Ichikawa [2]; [28],7.33%
same,AUC of viability dose-response curve,NOMO1 [3]; HPLM + 10% dialyzed FBS,442
same,AUC of viability dose-response curve,NOMO1 [3]; RPMI 5 mM glucose + 10% FBS,453
same,AUC of viability dose-response curve,NOMO1 [3]; [29],437
same,AUC of viability dose-response curve,P12-Ichikawa [4]; HPLM + 10% dialyzed FBS,447
same,AUC of viability dose-response curve,P12-Ichikawa [4]; RPMI 5 mM glucose + 10% FBS,444
same,AUC of viability dose-response curve,P12-Ichikawa [4]; [29],439
same,AUC of viability dose-response curve,SEM cells [5]; HPLM + 10% dialyzed FBS,365
same,AUC of viability dose-response curve,SEM cells [5]; RPMI 5 mM glucose + 10% FBS,358
same,AUC of viability dose-response curve,SEM cells [5]; [29],350
C[C@@H]1COCCN1C\2=C\C(=O)N\3CC[C@H](N(CC4=CN=CC(=C4)Cl)C3=N2)C(F)(F)F,cell viability,NOMO1 [1]; [18],90.9%
same,cell viability,NOMO1 [1]; [19],95.9%
same,cell viability,NOMO1 [1]; [20],102%
same,cell viability,NOMO1 [1]; [21],105%
same,cell viability,NOMO1 [1]; [22],124%
same,cell viability,NOMO1 [1]; [23],130%
same,cell viability,NOMO1 [1]; [24],112%
same,cell viability,NOMO1 [1]; [25],100%
same,cell viability,NOMO1 [1]; [26],103%
same,cell viability,NOMO1 [1]; [27],45.4%
same,cell viability,NOMO1 [1]; [28],29.4%
same,cell viability,NOMO1 [1]; [7],98%
same,cell viability,NOMO1 [1]; [8],87.7%
same,cell viability,NOMO1 [1]; [9],95.1%
same,cell viability,NOMO1 [1]; [10],93.8%
same,cell viability,NOMO1 [1]; [11],95.4%
same,cell viability,NOMO1 [1]; [12],98.5%
same,cell viability,NOMO1 [1]; [13],92.7%
same,cell viability,NOMO1 [1]; [14],94.2%
same,cell viability,NOMO1 [1]; [15],96.9%
same,cell viability,NOMO1 [1]; [16],57.4%
same,cell viability,NOMO1 [1]; [17],26%
same,cell viability,NOMO1 [1]; [30],87.7%
same,cell viability,NOMO1 [1]; [31],89.9%
same,cell viability,NOMO1 [1]; [32],91.1%
same,cell viability,NOMO1 [1]; [33],98.4%
same,cell viability,NOMO1 [1]; [34],108%
same,cell viability,NOMO1 [1]; [35],113%
same,cell viability,NOMO1 [1]; [36],95.1%
same,cell viability,NOMO1 [1]; [37],89.5%
same,cell viability,NOMO1 [1]; [38],67.7%
same,cell viability,NOMO1 [1]; [39],37%
same,cell viability,NOMO1 [1]; [40],22%
same,cell viability,P12-Ichikawa [2]; [18],94%
same,cell viability,P12-Ichikawa [2]; [19],101%
same,cell viability,P12-Ichikawa [2]; [20],98.9%
same,cell viability,P12-Ichikawa [2]; [21],94.3%
same,cell viability,P12-Ichikawa [2]; [22],97.5%
same,cell viability,P12-Ichikawa [2]; [23],103%
same,cell viability,P12-Ichikawa [2]; [24],101%
same,cell viability,P12-Ichikawa [2]; [25],104%
same,cell viability,P12-Ichikawa [2]; [26],85%
same,cell viability,P12-Ichikawa [2]; [27],32.7%
same,cell viability,P12-Ichikawa [2]; [28],22.5%
same,cell viability,P12-Ichikawa [2]; [7],91.4%
same,cell viability,P12-Ichikawa [2]; [8],94.1%
same,cell viability,P12-Ichikawa [2]; [9],95.7%
same,cell viability,P12-Ichikawa [2]; [10],89.2%
same,cell viability,P12-Ichikawa [2]; [11],98.3%
same,cell viability,P12-Ichikawa [2]; [12],107%
same,cell viability,P12-Ichikawa [2]; [13],97.2%
same,cell viability,P12-Ichikawa [2]; [14],108%
same,cell viability,P12-Ichikawa [2]; [15],76.5%
same,cell viability,P12-Ichikawa [2]; [16],40%
same,cell viability,P12-Ichikawa [2]; [17],17.5%
same,cell viability,P12-Ichikawa [2]; [30],99.4%
same,cell viability,P12-Ichikawa [2]; [31],102%
same,cell viability,P12-Ichikawa [2]; [32],106%
same,cell viability,P12-Ichikawa [2]; [33],98.8%
same,cell viability,P12-Ichikawa [2]; [34],107%
same,cell viability,P12-Ichikawa [2]; [35],99.6%
same,cell viability,P12-Ichikawa [2]; [36],114%
same,cell viability,P12-Ichikawa [2]; [37],99.8%
same,cell viability,P12-Ichikawa [2]; [38],86%
same,cell viability,P12-Ichikawa [2]; [39],30.8%
same,cell viability,P12-Ichikawa [2]; [40],17.6%
same,cell viability,SEM cells [6]; [18],88%
same,cell viability,SEM cells [6]; [19],83.8%
same,cell viability,SEM cells [6]; [20],91.6%
same,cell viability,SEM cells [6]; [21],97.5%
same,cell viability,SEM cells [6]; [22],85.9%
same,cell viability,SEM cells [6]; [23],97.8%
same,cell viability,SEM cells [6]; [24],91.5%
same,cell viability,SEM cells [6]; [25],94%
same,cell viability,SEM cells [6]; [26],78.8%
same,cell viability,SEM cells [6]; [27],43.2%
same,cell viability,SEM cells [6]; [28],24.8%
same,cell viability,SEM cells [6]; [7],109%
same,cell viability,SEM cells [6]; [8],109%
same,cell viability,SEM cells [6]; [9],120%
same,cell viability,SEM cells [6]; [10],96.4%
same,cell viability,SEM cells [6]; [11],115%
same,cell viability,SEM cells [6]; [12],117%
same,cell viability,SEM cells [6]; [13],122%
same,cell viability,SEM cells [6]; [14],88.5%
same,cell viability,SEM cells [6]; [15],74.4%
same,cell viability,SEM cells [6]; [16],43.4%
same,cell viability,SEM cells [6]; [17],25.1%
same,cell viability,SEM cells [6]; [30],89.6%
same,cell viability,SEM cells [6]; [31],92.3%
same,cell viability,SEM cells [6]; [32],96.9%
same,cell viability,SEM cells [6]; [33],90.9%
same,cell viability,SEM cells [6]; [34],83.4%
same,cell viability,SEM cells [6]; [35],98.7%
same,cell viability,SEM cells [6]; [36],107%
same,cell viability,SEM cells [6]; [37],89.2%
same,cell viability,SEM cells [6]; [38],71.2%
same,cell viability,SEM cells [6]; [39],42.4%
same,cell viability,SEM cells [6]; [40],34.1%
same,AUC of viability dose-response curve,NOMO1 [3]; HPLM + 10% dialyzed FBS,430
same,AUC of viability dose-response curve,NOMO1 [3]; RPMI 5 mM glucose + 10% FBS,418
same,AUC of viability dose-response curve,NOMO1 [3]; [29],400
same,AUC of viability dose-response curve,P12-Ichikawa [4]; HPLM + 10% dialyzed FBS,417
same,AUC of viability dose-response curve,P12-Ichikawa [4]; RPMI 5 mM glucose + 10% FBS,409
same,AUC of viability dose-response curve,P12-Ichikawa [4]; [29],415
same,AUC of viability dose-response curve,SEM cells [5]; HPLM + 10% dialyzed FBS,391
same,AUC of viability dose-response curve,SEM cells [5]; RPMI 5 mM glucose + 10% FBS,404
same,AUC of viability dose-response curve,SEM cells [5]; [29],397
